{"source": "patent US20250228879A1", "about": "“METHOD AND COMPOSITION FOR CONTROLLING ACNE USING RHAMNOLIPIDS” (Stepan Company, priority 2022, published 2025)", "key": {"C. acnes": {"test_system": "C. acnes", "test": "Labskin efficacy of rhamnolipids compared to salicylic acid and benzoyl peroxide (Example 5)", "format": "cell-based, Cutibacterium acnes", "method": "A study was conducted to compare the efficacy of the rhamnolipid mixture of the present technology with salicylic acid and benzoyl peroxide, two common over-the-counter anti-acne actives. The samples containing salicylic acid and benzoyl peroxide were additionally mixed using a tip sonicator to ensure complete dissolving or adequeate distribution of the active.\nThe skin analog substrate (Labskin) was prepared as described in Example 4. The C. acnes microorganism was cultured as described in Example 4, and each Labskin unit was inoculated as described in Example 4. The Labskin units were incubated at 37° C. for 24 hours, and after 24 hours, were treated with 11 microliters of control (dPBS), vehicle, or test item. All Labskin units were then incubated at 37° C. for 24 hours, after which biopsy samples of 8 mm in diameter were aseptically removed from the center of each Labskin unit and viable microbial numbers were assayed by recovery on appropriate culture medium.\nTechnical replicate counts obtained from selective solid media were averaged and used to calculate the colony forming units per square cm (CFU cm^−2). The enumeration of C. acnes for the control, vehicle, and test samples is shown graphically in FIG. 4.\nThe Log10 difference between the dPBS control and the vehicle and test samples was calculated as described in Example 4, and the Logio difference results are shown graphically in FIG. 5."}, "[1]": {"test_system": "Cutibacterium acnes (ATCC #6919)", "test": "Time-dependency comparative testing, flow cytometry viability (Example 6)", "format": "cell-based", "method": "A study was conducted to compare the time-dependent efficacy of a rhamnolipid mixture of the present technology (Example 6 Composition), a commercially available rhamnolipid product (Comparative Composition), and salicylic acid against Cutibacterium acnes (ATCC #6919). […] The Comparative Composition comprised a mixture of rhamnolipids having a mono-rhamnolipid: di-rhamnolipid ratio of about 4:96 Test samples were prepared by diluting the rhamnolipids and the salicylic acid in sterile water. […] The concentrations of salicylic acid actives in the test samples were 0.03 wt %, 0.1 wt %, and 0.3 wt %. Prior to initiation of the study, samples were sufficiently pre-reduced to remove oxygen by using an indirect atmospheric sequestering of oxygen using hydrogen reaction over palladium catalyst. […] The sample aliquots were neutralized by dilution in an oxygen-reducing buffer containing the flow cytometry dyes, SYTO 9 and Propidium Iodide. Samples were analyzed using flow cytometry where cells were characterized by morphology and viability in comparison to a deionized water control."}, "[2]": {"settings": "water at 25° C.; cited from earlier work"}, "C. acnes ATCC 6919": {"test_system": "C. acnes ATCC 6919", "test": "Efficacy against C. acnes, aqueous test samples (Example 1)", "format": "cell-based, Cutibacterium acnes", "settings": "Tested Conc. 0.3%, pH 2.7", "method": "A study was conducted to determine the antimicrobial activity of a rhamnolipid mixture of the present technology alone against C. acnes, available from American Type Culture Collection (ATCC), Manassas, VA as ATCC 6919. Test samples were prepared by mixing 6.0% by weight of the rhamnolipid mixture into an aqueous base. Two samples were prepared, one sample using a rhamnolipid mixture processed by a non-solvent purification process, and the other sample using a rhamnolipid mixture processed by a solvent extraction process. The rhamnolipid mixtures in each sample comprise a weight ratio of mono-rhamnolipids to di-rhamnolipids in the range of 43:57 to 45:55."}, "[3]": {"settings": "15 min Exposure, Tested Conc. 0.03%"}, "[4]": {"settings": "15 min Exposure, Tested Conc. 0.10%"}, "[5]": {"settings": "15 min Exposure, Tested Conc. 0.30%"}, "[6]": {"settings": "60 min Exposure, Tested Conc. 0.03%"}, "[7]": {"settings": "60 min Exposure, Tested Conc. 0.10%"}, "[8]": {"settings": "60 min Exposure, Tested Conc. 0.30%"}}, "note": "Marks after values point to notes of the source that are not given here."}
{"smiles": "O=C(OOC(=O)c1ccccc1)c1ccccc1", "note": "[benzoyl peroxide]", "values": [{"measurement": "Log10 difference of C. acnes vs dPBS control (FIG. 5)", "setting": "C. acnes; benzoyl peroxide alone (5% and 2.5% w/w) in 20% w/w Tween in dPBS", "value": "significant decrease in the recovered population of C. acnes"}]}
{"smiles": "O=C(O)c1ccccc1O", "note": "[Salicylic acid in DI Water, salicylic acid]", "values": [{"measurement": "Enumeration of C. acnes compared with dPBS control (FIG. 4)", "setting": "C. acnes; 0.5% w/w in 20% w/w Tween in dPBS, Labskin, 24 hours", "value": "slight decrease in the average amount of C. acnes"}, {"measurement": "Log10 difference of C. acnes vs dPBS control (FIG. 5)", "setting": "C. acnes; 0.5% w/w salicylic acid in 20% w/w Tween in dPBS", "value": "moderate decrease in C. acnes recovered"}, {"measurement": "Log10 difference of C. acnes vs dPBS control (FIG. 5)", "setting": "C. acnes; 2% w/w salicylic acid in 20% w/w Tween in dPBS", "value": "noticeable decrease in the recovered population of C. acnes"}, {"measurement": "Log10 cells/mL Reduction", "setting": "[1]; [3]", "value": 0.10, "unit": "Log10 cells/mL"}, {"measurement": "Percent Reduction", "setting": "[1]; [3]", "value": 20.6, "unit": "%"}, {"measurement": "Log10 cells/mL Reduction", "setting": "[1]; [4]", "value": 0.10, "unit": "Log10 cells/mL"}, {"measurement": "Percent Reduction", "setting": "[1]; [4]", "value": 20.6, "unit": "%"}, {"measurement": "Log10 cells/mL Reduction", "setting": "[1]; [5]", "value": 0.57, "unit": "Log10 cells/mL"}, {"measurement": "Percent Reduction", "setting": "[1]; [5]", "value": 73.2, "unit": "%"}, {"measurement": "Log10 cells/mL Reduction", "setting": "[1]; [6]", "value": 0.35, "unit": "Log10 cells/mL"}, {"measurement": "Percent Reduction", "setting": "[1]; [6]", "value": 55.2, "unit": "%"}, {"measurement": "Log10 cells/mL Reduction", "setting": "[1]; [7]", "value": 1.14, "unit": "Log10 cells/mL"}, {"measurement": "Percent Reduction", "setting": "[1]; [7]", "value": 92.8, "unit": "%"}, {"measurement": "Log10 cells/mL Reduction", "setting": "[1]; [8]", "value": ">2.30", "unit": "Log10 cells/mL"}, {"measurement": "Percent Reduction", "setting": "[1]; [8]", "value": ">99.5", "unit": "%"}, {"measurement": "solubility limit in water", "setting": "[2]", "value": 0.3, "unit": "% *"}, {"measurement": "Reduction %", "setting": "C. acnes ATCC 6919; 1 h Exposure", "value": ">99.997", "unit": "%"}, {"measurement": "Reduction Log10 CFU/mL", "setting": "C. acnes ATCC 6919; 1 h Exposure", "value": ">4.6", "unit": "Log10 CFU/mL"}, {"measurement": "Reduction %", "setting": "C. acnes ATCC 6919; 24 h Exposure", "value": ">99.995", "unit": "%"}, {"measurement": "Reduction Log10 CFU/mL", "setting": "C. acnes ATCC 6919; 24 h Exposure", "value": ">4.3", "unit": "Log10 CFU/mL"}]}
